Earlier results as cited in patent publication US11981760B2, “Therapeutic hydrogels and contact lens for corneal melting” (THE REGENTS OF THE UNIVERSITY OF COLORADO, priority 2018, dated 2024).
pKd: −log10 of the molar value.

Compound: c1ccc(CNCc2ccccn2)nc1 [DPA, dipicolylamine]
- association with other metal ions (Ca^2+, Mg^2+, Na^+ and K^+): does not associate strongly
- pKd (five-membered chelate ring, read-out: Kd of Zn^2+ complexation): ~11.00
